Ki and melting point data for seven molecules are collected here from patent US7511133B2, “Adenosine A3 receptor agonists” (King Pharmaceuticals Research and Development, Inc., priority 2003, dated 2009).

Read-outs that look alike come from different tables or passages of the source.

In data set [1] the target is T1, human A2A adenosine receptors (Homo sapiens, UniProt P29274).
T1 construct: expressed in transfected cells; host or cells: CHO cells
In words: Displacement of [^3H]CGS21680 binding, human A2A adenosine receptors in CHO cells (agonist radioligand).

The next data set addresses T2, human A2A receptors (Homo sapiens, UniProt P29274).
T2 construct: expressed in transfected cells; host or cells: CHO cells
In words: [^3H] SCH58261 binding to human A2A receptors expressed in CHO cells (antagonist radioligand). As to the method: (§1) Binding assay methodology for the human data with antagonist radioligands. […] Arch. Pharmacol. 357: 1-9, (1998). The cells were grown adherently and maintained in Dulbecco's Modified Eagles Medium with nutrient mixture F12 (DMEM/F12) without nucleosides, containing 10% fetal calf serum, penicillin (100 U/ml), streptomycin (100 μg/ml), L-glutamine (2 mM) and Geneticin (G418, 0.2 mg/ml) at 37° C. in 5% CO2/95% air. Cells were split 2 or 3 times weekly at a ratio between 1:5 and 1:20. For membrane preparation the culture medium was removed and the cells were washed with PBS and scraped off T75 flasks in ice-cold hypotonic buffer (5 mM Tris HCl, 2 mM EDTA, pH 7.4). The cell suspension was homogenized with Polytron and the homogenate was spun for 10 min at 1,000×g. The supernatant was then centrifuged for 30 min at 100,000×g. The membrane pellet was resuspended in 50 mM Tris HCl buffer pH 7.4 (for A3 adenosine receptors: 50 mM Tris HCl, 10 mM MgCl2, 1 mM EDTA) and incubated with 3 UI/ml of Adenosine deaminase for 30 min at 37° C. Then the suspension was frozen at −80° C. HEK 293 cells transfected with the human recombinant A2B adenosine receptor were obtained from Receptor Biology, Inc. (Beltsville, Md., USA).
Binding of [^3H]-SCH 58261 to CHO cells transfected with the human recombinant A2A adenosine receptors (50 μg of protein/assay) was performed using 0.2 ml 50 mM Tris HCl buffer, 10 mM MgCl2 pH 7.4 and at least 6-8 different concentrations of antagonists studied for an incubation time of 30 min at 25° C.

A further data set deals with T3, human hA2B receptors (Homo sapiens, UniProt P29275).
T3 construct: host or cells: HEK 293 cells
T3 sequence (P29275 1-332): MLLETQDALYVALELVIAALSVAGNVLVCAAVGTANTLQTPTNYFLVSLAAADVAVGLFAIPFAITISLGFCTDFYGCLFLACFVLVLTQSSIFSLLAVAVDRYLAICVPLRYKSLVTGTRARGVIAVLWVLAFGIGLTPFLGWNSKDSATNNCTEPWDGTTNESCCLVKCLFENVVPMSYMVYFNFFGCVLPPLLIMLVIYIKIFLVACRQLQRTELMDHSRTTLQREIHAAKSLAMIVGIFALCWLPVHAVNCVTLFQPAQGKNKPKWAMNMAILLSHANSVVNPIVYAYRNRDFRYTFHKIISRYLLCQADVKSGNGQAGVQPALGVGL
In words: [^3H] DPCPX binding to human hA2B receptors expressed in HEK293 cells (antagonist radioligand). As to the method:
as §1
Competition experiments of [^3H]-DPCPX to HEK-293 cells transfected with the human recombinant A^2B adenosine receptor were performed for 60 min at 25° C. in 0.1 ml of 50 mM Tris HCl buffer, 10 mM MgCl2, 1 mM EDTA, 0.1 mM benzamidine pH 7.4, 2 IU/ml adenosine deaminase containing 34 nM [^3H]-DPCPX, diluted membranes (20 μg of protein/assay) and at least 6-8 different concentrations of selected compounds.

The target in a further data set is T4, human A1 receptors (Homo sapiens, UniProt P30542).
T4 construct: expressed in transfected cells; host or cells: CHO cells
T4 sequence (P30542 1-326): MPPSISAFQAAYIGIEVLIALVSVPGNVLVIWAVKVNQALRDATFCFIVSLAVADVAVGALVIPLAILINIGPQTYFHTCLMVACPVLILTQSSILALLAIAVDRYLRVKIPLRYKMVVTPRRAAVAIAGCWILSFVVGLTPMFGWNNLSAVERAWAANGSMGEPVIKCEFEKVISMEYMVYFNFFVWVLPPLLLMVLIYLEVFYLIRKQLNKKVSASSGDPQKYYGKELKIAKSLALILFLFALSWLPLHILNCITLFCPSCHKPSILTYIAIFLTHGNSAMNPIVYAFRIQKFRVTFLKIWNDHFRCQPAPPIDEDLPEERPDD
In words: [^3H] DPCPX binding to human A1 receptors expressed in CHO cells (antagonist radioligand). As to the method: as §1, with “Pharmacol. 357: 1-9, (1998).” left out
Displacement experiments were performed for 120 min at 25° C. in 0.2 ml of 50 mM Tris HCl buffer pH 7.4 containing 1 nM [3H]-DPCPX, diluted membranes (50 μg of protein/assay) and at least 6-8 different concentrations of antagonists studied. Non-specific binding was determined in the presence of 10 μM of CHA and this was always ≦10% of the total binding.

Data set [2] addresses T5, human A1 adenosine receptors (Homo sapiens, UniProt P30542).
T5 sequence (P30542 1-326): T4 sequence (P30542 1-326)
In words: Displacement of [^3H]CHA binding, human A1 adenosine receptors in CHO cells (agonist radioligand).

The target in the next data set is T6, human A3 receptors (Homo sapiens, UniProt P0DMS8).
T6 construct: expressed in transfected cells; host or cells: CHO cells
T6 sequence (P0DMS8 1-318): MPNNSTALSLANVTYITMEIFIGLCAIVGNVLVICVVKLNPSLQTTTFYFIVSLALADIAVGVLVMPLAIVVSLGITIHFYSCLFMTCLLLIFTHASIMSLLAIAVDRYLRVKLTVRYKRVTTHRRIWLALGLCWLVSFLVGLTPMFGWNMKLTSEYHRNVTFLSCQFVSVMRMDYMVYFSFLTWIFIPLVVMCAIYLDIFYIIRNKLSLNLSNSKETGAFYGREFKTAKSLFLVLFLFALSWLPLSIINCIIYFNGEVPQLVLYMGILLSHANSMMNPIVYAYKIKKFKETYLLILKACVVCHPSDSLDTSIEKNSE
Description: [^3H] MRE3008F20 binding to human A3 receptors expressed in CHO cells (antagonist radioligand). As for the experimental part: as §1
Binding of [^3H]-MRE 3008F20 to CHO cells transfected with the human recombinant A3 adenosine receptors was performed according to Varani et al., 2000. Competition experiments were carried out in duplicate in a final volume of […] in test tubes containing 1 nM [^3H]-MRE 3008F20, 50 mM Tris HCl buffer, 10 mM MgCl2, 1 mM EDTA pH 7.4 and 100 μl of diluted membranes (50 μg of protein/assay) and at least 8-10 different concentrations of examined antagonists. Incubation time was 120 min at 4° C., according to the results of previous time-course experiments.

Data set [3] has as its target T7, human A3 adenosine receptors (Homo sapiens, UniProt P0DMS8).
T7 sequence (P0DMS8 1-318): T6 sequence (P0DMS8 1-318)

Where [4] appears, read: human A2A, CHO cells, [^3H]CGS21680, read-out: Ki(A2A). Displacement of [^3H]CGS21680 binding to human A2A adenosine receptors exp. in CHO cells.
[5] abbreviates: human A2A, CHO cells, antagonist radioligand, read-out: [^3H] SCH58261 binding to human A2A receptors expressed in CHO cells Ki.
Setting [6] is: human A2B, HEK293 cells, antagonist radioligand, read-out: [^3H] DPCPX binding to human hA2B receptors expressed in HEK293 cells Ki.
[7] abbreviates: human A1, CHO cells, antagonist radioligand, read-out: [^3H] DPCPX binding to human A1 receptors expressed in CHO cells Ki.
Setting [8] is: human A3, CHO cells, antagonist radioligand, read-out: [^3H] MRE3008F20 binding to human A3 receptors expressed in CHO cells Ki.

T2 sequence (P29274 whole entry): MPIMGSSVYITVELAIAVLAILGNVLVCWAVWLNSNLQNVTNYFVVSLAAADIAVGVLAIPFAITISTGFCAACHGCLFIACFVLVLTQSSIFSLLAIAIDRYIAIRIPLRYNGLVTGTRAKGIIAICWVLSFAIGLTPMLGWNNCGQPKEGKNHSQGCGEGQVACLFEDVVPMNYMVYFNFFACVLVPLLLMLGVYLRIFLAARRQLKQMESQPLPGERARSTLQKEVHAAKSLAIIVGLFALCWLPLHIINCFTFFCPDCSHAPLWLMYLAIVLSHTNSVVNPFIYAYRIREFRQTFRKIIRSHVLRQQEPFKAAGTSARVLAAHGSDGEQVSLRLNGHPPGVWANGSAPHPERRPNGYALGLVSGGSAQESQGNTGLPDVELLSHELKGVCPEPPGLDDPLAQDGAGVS
T1 sequence (P29274 whole entry): as above

Usually Ki stands for a dissociation constant, usually derived from enzyme kinetics or from competition with a known ligand. The melting point is the temperature, or range, at which the solid turns liquid. For the molecule `CCNC(=O)[C@H]1O[C@@H](n2cnc3c(NC(=O)Nc4ccc(S(=O)(=O)N5CCCCC5)cc4)ncnc32)[C@H](O)[C@@H]1O` [Compound 83, 1-Deoxy-1-[6-[[[[4-[(piperidin-1-yl)sulfonyl]phenyl]amino]carbonyl]amino]-9H-purin-9-yl]-N-ethyl-β-D-ribofuranuronamide], the melting point was in the range of 176 to 178 °C. Also, the inhibitory constant (Ki) in data set [1] (setting [4]) is greater than 1000 nM. The Ki at human A2A receptors (setting [5]) was greater than 1000 nM. For the same molecule, the Ki at human hA2B receptors (setting [6]) is greater than 1000 nM.
As to `CCNC(=O)[C@H]1O[C@@H](n2cnc3c(NC(=O)Nc4ccc(S(=O)(=O)NCc5ccccc5)cc4)ncnc32)[C@H](O)[C@@H]1O` [Compound 86, 1-Deoxy-1-[6-[[[[4-[N-(benzyl)aminosulfonyl]phenyl]amino]-carbonyl]amino]-9H-purin-9-yl]-N-ethyl-β-D-ribofuranuronamide], the Ki is greater than 1000 nM in data set [1] (setting [4]); greater than 1000 nM at human A1 receptors (setting [7]); greater than 1000 nM on human A2A receptors (setting [5]); greater than 1000 nM on human hA2B receptors (setting [6]); 300 nM in data set [2].
On to `CCNC(=O)[C@H]1O[C@@H](n2cnc3c(NC(=O)Nc4ccc(S(=O)(=O)Nc5ccc(OC)cc5)cc4)ncnc32)[C@H](O)[C@@H]1O` [Compound 88, 1-Deoxy-1-[6-[[[[4-[N-(4-methoxyphenyl)aminosulfonyl]phenyl]-amino]carbo-nyl]amino]-9H-purin-9-yl]-N-ethyl-β-D-ribofuranuronamide], for which the Ki was greater than 1000 nM in data set [1] (setting [4]); greater than 1000 nM on human A1 receptors (setting [7]); greater than 1000 nM on human A2A receptors (setting [5]); greater than 1000 nM on human hA2B receptors (setting [6]); 280 nM in data set [2].
In turn, `CCNC(=O)[C@H]1O[C@@H](n2cnc3c(NC(=O)Nc4ccc(S(=O)(=O)N5CCCC5)cc4)ncnc32)[C@H](O)[C@@H]1O` [Compound 90, 1-Deoxy-1-[6-[[[[4-[(pyrrolidin-1-yl)sulfonyl]phenyl]amino]carbonyl]amino]-9H-purin-9-yl]-N-ethyl-β-D-ribofuranuronamide] registered a melting point of 204 to 205 °C. Further, in data set [1] (setting [4]), the Ki is greater than 1000 nM. Further, at human A2A receptors (setting [5]), the Ki is greater than 1000 nM. In addition, at human hA2B receptors (setting [6]), the Ki was greater than 1000 nM. For the same molecule, the Ki at human A3 receptors (setting [8]) came out at 100 nM. Also, the Ki in data set [3] was found to be 22 nM.
As to `CCNC(=O)[C@H]1O[C@@H](n2cnc3c(NC(=O)Nc4ccc(S(=O)(=O)N(CCCl)CCCl)cc4)ncnc32)[C@H](O)[C@@H]1O` [Compound 91, 1-Deoxy-1-[6-[[[[4-[N,N-bis(2-chloroethyl)aminosulfonyl]phenyl]-amino]carbonyl]amino]-9H-purin-9-yl]-N-ethyl-β-D-ribofuranuronamide], the inhibition constant (Ki) in data set [1] was greater than 1000 nM; at human A1 receptors, greater than 1000 nM; at human A2A receptors, greater than 1000 nM; at human hA2B receptors, greater than 1000 nM; on human A3 receptors, 120 nM; in data set [2], 730 nM. Also, in data set [3], the Ki worked out at 23 nM.
The molecule `CCNC(=O)[C@H]1O[C@@H](n2cnc3c(NC(=O)Nc4ccc(S(=O)(=O)NC5CCCCC5)cc4)ncnc32)[C@H](O)[C@@H]1O` [Compound 94, 1-Deoxy-1-[6-[[[[4-[N-(cyclohexyl)aminosulfonyl]phenyl]-amino]carbonyl]amino]-9H-purin-9-yl]-N-ethyl-β-D-ribofuranuronamide] registered a melting point of 179 to 183 °C. Moreover, the Ki in data set [1] (setting [4]) was greater than 1000 nM. Moreover, at human A1 receptors (setting [7]), the Ki is greater than 1000 nM. Besides, on human A2A receptors (setting [5]), the Ki was greater than 1000 nM. Further, the Ki at human hA2B receptors (setting [6]) is greater than 1000 nM. This molecule came in with a Ki in data set [2] of 350 nM.
`C=CCN(C)S(=O)(=O)c1ccc(NC(=O)Nc2ncnc3c2ncn3[C@@H]2O[C@H](C(=O)NCC)[C@@H](O)[C@H]2O)cc1` [Compound 96, 1-Deoxy-1-[6-[[[[4-[N-(allyl)-N-(methyl)amino-sulfonyl]phenyl]amino]carbonyl]amino]-9H-purin-9-yl]-N-ethyl-β-D-ribofuranuronamide] had a melting point of 181 to 185 °C. The Ki in data set [1] (setting [4]) was greater than 1000 nM. Further, at human A2A receptors (setting [5]), the inhibition constant Ki was greater than 1000 nM. Also, at human hA2B receptors (setting [6]), the Ki is greater than 1000 nM. For the same molecule, at human A3 receptors (setting [8]), the Ki amounted to 50 nM. In data set [3], this molecule came in with a Ki of 10 nM.
